Results as given in patent US8889902B2, “Acetylsalicylic acid salts” (priority 2009, dated 2014).
Where “and” joins values, the source holds several entries; their conditions need not be identical. Equal entries are not always repeated. Marks after values point to notes of the source that are not given here.

What was measured:
[1] = system: serum lipid levels (C, HDL, LDL, TG); test: Acute hyperlipidemia model (Triton WR1339); type: in vivo, Wistar rats; conditions: serum 24 h
Method: Male Wistar rats with body mass of 250-270 g were used. Animals were held in groups of 6-8 in climatized rooms at 22±1° C., relative humidity 60±5%, and 12/12-hour light/dark cycle with free access to water and feed. […] The solution of test substances or water was introduced to control and TR group animals p.o. one hour before and 20 hours after the introduction of TR as described below.
Blood for biochemical analysis was collected on the next day (24 hours after the injection of TR) by heart punction under ether narcosis. Serum was separated by centrifugation and analyzed for total cholesterol, HDL, LDL and TG levels by commercial kits.

[2] = system: response to thermal irritation (hot plate); test: Mouse hot plate test; type: in vivo, mice
[3] = system: WBC, CRP, CIC in adjuvant arthritis; test: Adjuvant arthritis: WBC, CRP and CIC in blood; type: in vivo, Wistar rats
Method: Our experiments were scheduled to test the influence of MASA on the progress of adjuvant arthritis in comparison with MD and ASA. Experiments were conducted on Wistar rats with starting body mass of 153-185 g. Rats were kept in climatized rooms at 22±1° C., relative humidity 60±5% and 12/12-hour light/darkness cycle. Each standard cage housed 7 rats with unlimited access to drinking water and granulated standard feed. All experiments were carried out in accordance with the European Community Council's Directive of 24 Nov. 1986 (86/609/EEC) relative to experimental animal care. All efforts were made to minimize animal suffering and to reduce the number of animals used.
A modified standard procedure for inducting and evaluating the progress of chronic adjuvant arthritis was used (Bellavite P, Ortolani R, Conforti A, Immunology and Homeopathy. 3. Experimental Studies on Animal Models, Advance Access Publication 2.05, 2006, 171-186). Rats were injected into the hind foot pad 0.1 ml and intraperitonealy with 0.05 ml of complete Freund's adjuvant solution.
Hematological indices were determined by standard methods on hematological analyzer ? PENTRA 120 ? , CRP was determined on ? INTEGRA 400+ ? . Levels of CIC in blood serum were determined spectrometrically, using […].

carrageneen paw oedema = test: Acute inflammatory oedema model (carrageneen test); type: in vivo, rats; conditions: 4 h
Method: Experiments were conducted using carrageneen test (Winter C et al, Proc Soc Exptl Biol and Med 1962; III(3):544-547. Wei Jia et al, Journal of Ethnopharmacology 2003(89):139-141; Sutharson Lingadurai et al, African Journal of traditional, complementary and alternative medicines, 2007, 4(4):411-416) on 42 rats with body mass of 226-274 g. Single injection of carrageneen (Sigma) solution (1%) in saline (0.1 ml) was introduced in rat hind leg paw. Test substances were introduced p.o. (through catheter into rat stomach) 30 min. after the injection of carrageneen. The volume of paw was measured by oncometer at baseline and 4 hours after the injection of carrageneen.
The percentage of prevention (inhibition of oedema) was calculated according to formula: P(%)=(1−Vo/Vc)×100, where P—Prevention in % (inhibition of oedema) Vo—difference between the paw volume at baseline and at experimental conditions; Vc—analogical difference in control group.

[4] = system: hyperthermia induced by intramuscular injection of pyrogenal; test: Antipyretic activity, pyrogenal hyperthermia (curative mode); type: in vivo, rats
Method: The antipyretic effect of test substances in therapeutic (curative) mode was investigated on 48 rats with body mass 182-205 g, with hyperthermia induction by injecting pyrogenal in dose 100 μg (Shwarz G Y, Syubaev R D, Vedomosti NCEG lekarstvennyh sredstv MZ RF 2000; 1:44-50 (Rus). Test substances were given p.o. 2 hours after injection of pyrogenal immediately after the recording of elevated body temperature. Rectal temperature was measured by electric thermometer TERMO before the i.m. injection of pyrogenal (baseline temperature), at the peak of hyperthermia (pyrogenal control) and 30 min. after treatment with test substance, i.e., 2½ hours after the injection of pyrogenal. Ambient temperature in laboratory was kept at 20-22° C.

[5] = system: hyperthermia induced by intramuscular injection of pyrogenal; test: Preventive antipyretic activity, pyrogenal hyperthermia; type: in vivo, Wistar rats
Method: Experiments were conducted on 48 Wistar rats with body mass 165-182 g by intramuscular injection of pyrogenal (Gamalei State Research Institution, Moscow, Russia) in 100 μg dose (Shwarz G Y, Syubaev R D, Vedomosti NCEG lekarstvennyh sredstv MZ RF 2000; 1:44-50 (Rus). Test substances were given p.o. one hour before the pyrogenal injection. Rectal temperature was measured by electric thermometer TERMO before injection of pyrogenal (baseline) and for 3 hours after injection. The antipyretic activity was evaluated by the reduction of hyperthermic reaction 2 hours after injection of pyrogenal that correlated well with the published data (10) about the peak of reaction (Table 6). Ambient temperature was kept at 20-21° C.

[6] = 100 mg/kg p.o. 30 min after carrageneen
[7] = 75 mg/kg p.o. 30 min after carrageneen
[8] = 150 mg/kg p.o. 30 min after carrageneen
[9] = 300 mg/kg p.o. 30 min after carrageneen

## CC(=O)Oc1ccccc1C(=O)O [ASA, acetylsalicylic acid]
[1]; 45 mg/kg p.o. 1 h before and 20 h after TR 250 mg/kg
  C: 381.0 ± 30.3 mg/dL
[1]; 45 mg/kg p.o., TR 250 mg/kg
  HDL: 62.8 ± 10.9 mg/dL
  LDL: 307.4 ± 37.8 mg/dL
  TG: 973 ± 82.7 mg/dL
[1]; 90 mg/kg p.o., TR 250 mg/kg
  C: 288.1 ± 23.5 mg/dL
  HDL: 60.0 ± 7.4 mg/dL
  LDL: 219.1 ± 23.9 mg/dL
  TG: 791 ± 73.9 mg/dL
[2]; 50 mg/kg p.o.
  Latent period at 30 min after introduction of test substance: 5.4 ± 0.46 s
  Latent period at 60 min after introduction of test substance: 9.7 ± 1.05 s
[3]; 10 mg/kg daily p.o.
  CIC units, Day 14: 10.8 ± 0.74 units
  CIC units, Day 28: 8.2 ± 0.53 units
  CRP, Day 14: 0.26 ± 0.01 mg/L
  CRP, Day 28: 0.19 ± 0.01 mg/L
[3]; 100 mg/kg daily p.o.
  CIC units, Day 14: 15.0 ± 1.23 units
  CIC units, Day 28: 14.4 ± 1.66 units
  CRP, Day 14: 0.29 ± 0.01 mg/L
  CRP, Day 28: 0.18 ± 0.02 mg/L
Carrageneen paw oedema; [6]
  Index, % (inhibition of oedema): 66%
  Volume of paw after injection of carrageneen: 1.97 ± 0.10 mL
[4]; 50 mg/kg p.o. 2 h after pyrogenal
  Rectal temperature at 30 minutes after treatment: 36.51 ± 0.15*^$ ° C.
[5]; 50 mg/kg p.o. 1 h before pyrogenal
  Rectal temperature 120 minutes after injection: 35.6 ± 0.19***^$ ° C.

## CC(=O)Oc1ccccc1C(=O)[O-].C[N+](C)(C)NCCC(=O)O [MASA, 3-(trimethylammonioamino)propanoate Acetylsalicylic Acid Addition Salt]
[1]; 75 mg/kg p.o., TR 250 mg/kg
  C: 341.9 ± 16.3 mg/dL
  HDL: 68.1 ± 8.7 mg/dL
  LDL: 270.1 ± 12.8 mg/dL
  TG: 861 ± 105.7 mg/dL
[1]; 150 mg/kg p.o., TR 250 mg/kg
  C: 249.6 ± 22.2**^$& mg/dl and 249.6 ± 22.2**^$ mg/dl and 249.6 ± 22.2**^& mg/dl
  HDL: 58.2 ± 8.1 mg/dL
  LDL: 182.4 ± 19.6**^$& mg/dl and 182.4 ± 19.6**^$ mg/dl and 182.4 ± 19.6**^& mg/dl
  TG: 668 ± 104.4**^$& mg/dl and 668 ± 70.9**^$ mg/dl and 668 ± 70.9**^& mg/dl
[1]; 300 mg/kg p.o., TR 250 mg/kg
  C: 219.0 ± 16.7**^$#& mg/dl
  HDL: 56.3 ± 8.6 mg/dL
  LDL: 158.6 ± 19.4**^$#& mg/dl
  TG: 548 ± 73.2***^&$# mg/dl
[2]; 75 mg/kg p.o.
  Latent period at 30 min after introduction of test substance: 5.4 ± 0.38 s
  Latent period at 60 min after introduction of test substance: 4.6 ± 0.26 s
[2]; 150 mg/kg p.o.
  Latent period at 30 min after introduction of test substance: 9.5 ± 0.53***^&&& s
  Latent period at 60 min after introduction of test substance: 7.1 ± 0.55 s
[2]; 300 mg/kg p.o.
  Latent period at 30 min after introduction of test substance: 9.6 ± 1.12**^& s
  Latent period at 60 min after introduction of test substance: 8.6 ± 0.60 s
[3]; 25 mg/kg daily p.o.
  CIC units, Day 14: 12.6 ± 0.68 units
  CIC units, Day 28: 11.8 ± 1.53 units
  CRP, Day 14: 0.29 ± 0.02 mg/L
  CRP, Day 28: 0.15 ± 0.02^##& mg/l
  Leucocytes (WBC), Day 14: 14.72 ± 1.63^# 10^3/mm^3
  Leucocytes (WBC), Day 28: 16.77 ± 1.78 10^3/mm^3
[3]; 100 mg/kg daily p.o.
  CIC units, Day 14: 20.8 ± 2.99 units
  CIC units, Day 28: 5.8 ± 0.74^##&@@$ units
  CRP, Day 14: 0.29 ± 0.02 mg/L
  CRP, Day 28: 0.16 ± 0.01^##& mg/l
  Leucocytes (WBC), Day 14: 14.13 ± 0.53^## 10^3/mm^3
  Leucocytes (WBC), Day 28: 15.52 ± 0.57^## 10^3/mm^3
[3]; 200 mg/kg daily p.o.
  CIC units, Day 14: 21.6 ± 3.26 units
  CIC units, Day 28: 6.2 ± 1.02^##@ units
  CRP, Day 14: 0.25 ± 0.01*^#@ mg/l
  CRP, Day 28: 0.19 ± 0.01 mg/L
  Leucocytes (WBC), Day 14: 15.42 ± 1.40^# 10^3/mm^3
  Leucocytes (WBC), Day 28: 14.35 ± 0.84^## 10^3/mm^3
Carrageneen paw oedema; [7]
  Index, % (inhibition of oedema): 18%
  Volume of paw after injection of carrageneen: 2.51 ± 0.11 mL
Carrageneen paw oedema; [8]
  Index, % (inhibition of oedema): 93%
  Volume of paw after injection of carrageneen: 1.54 ± 0.15***^$& ml
Carrageneen paw oedema; [9]
  Index, % (inhibition of oedema): 91%
  Volume of paw after injection of carrageneen: 1.79 ± 0.15 mL
[4]; 75 mg/kg p.o. 2 h after pyrogenal
  Rectal temperature at 30 minutes after treatment: 36.90 ± 0.07 °C
[4]; 150 mg/kg p.o. 2 h after pyrogenal
  Rectal temperature at 30 minutes after treatment: 36.75 ± 0.09^#$ ° C.
[4]; 300 mg/kg p.o. 2 h after pyrogenal
  Rectal temperature at 30 minutes after treatment: 36.40 ± 0.11*^$$% ° C.
[5]; 75 mg/kg p.o. 1 h before pyrogenal
  Rectal temperature 120 minutes after injection: 36.3 ± 0.20 °C
[5]; 150 mg/kg p.o. 1 h before pyrogenal
  Rectal temperature 120 minutes after injection: 36 ± 0.21 °C
[5]; 300 mg/kg p.o. 1 h before pyrogenal
  Rectal temperature 120 minutes after injection: 35.8 ± 0.16***^$ ° C.
